IC50 data for one compound are collected here from publication PMC6941661 (Cell host & microbe, 2019).

This experiment concerns N9 NA of A/Shanghai/2/2013 (SH13) (H7N9), virus A/Shanghai/2/2013 (H7N9)-PR8-IDCDC-RG32A. Type of experiment: biochemical, Influenza A virus (A/Shanghai/2/2013(H7N9)).

Take `CC(=O)N[C@H]1[C@H]([C@H](O)[C@H](O)CO)OC(C(=O)O)=C[C@@H]1N=C(N)N` [zanamivir]: it took 7.6 nM to reach half-maximal inhibition (IC50).

Broadly, the IC50 is the point on the concentration scale where inhibition reaches its midpoint. The low end stands for greater potency, the high end for weaker potency.
